Data on three substances can be found in US6734171B1, “Methods for encapsulating nucleic acids in lipid bilayers” (Inex Pharmaceuticals Corp., priority 1997, dated 2004).

Assay [1] has as its system Unseparated spleen cells. Description: Cell proliferation assay (3H-thymidine) of spleen cells stimulated in vitro. The settings on record: spleen cells of Diluent treated mice; label = in vitro stimulation. The format is cell-based, Balb/c mice. The procedure:
Mice, 12 per group, were injected intravenously (i.v.) with TCS formulations as described below. In this study four injections were given at intervals of seven days over a period of five weeks (Table 4). Group A was injected with INEX324 expressing LacZ reporter gene on day 0, 7 and 14 (150 μl per mouse of INEX324-LacZ, 75 μg DNA). Two weeks after the last LacZ injection, mice were injected with INEX324-Luc (150 μl per injection, 80 μg DNA). To evaluate the immunogenicity of INEX324 lipid, Group B received three injections of INEX324 empty vesicles (150 μl per mouse) and one injection of INEX324-Luc two weeks later. Group C served as a base-line control, mice were given 150 μl of diluent at each time point. Mice from Group D received three diluent injections, followed by a single injection of INEX324-Luc, and served as a positive control for luciferase expression. Three mice from each group were sacrificed at 18 hours after each injection, or 24 hours prior to the following injection. Blood was collected and the serum samples were analyzed for the presence of antibodies specific for β-galactosidase using an ELISA assay. […] Splenocytes were monitored for expression, of differentiation (CD4, CD8, CD22, CD11b) and activation (CD86, MHC-II, Ly-6A/E, CD54 and CD25) markers. […]
Unseparated spleen cells were tested in vitro for their ability to proliferate upon re-stimulation with the empty INEX324 vesicles, INEX324-LacZ formulation, LacZ, transgene product (r-β-galactosidase), or with polyclonal activators for T (Concanavalin A, Con A) and […] (Lipopolysaccharide, LPS). […] An isolated cell suspension was separated from debris by removing the supernatant and the cell number was quantified using a Coulter counter (Coulter Instruments, Miami, Fla.). […] The levels of incorporated radioactivity were measured in a scintillation counter. ^3H-thymidine incorporation is expressed total ^3H-incorporation (DPMs), or as a mean percentage (±SD) of media control and plotted versus lipid concentration values.

Assay [2] has as its system Splenocytes. Description: Cytokine release (IL-2, IL-4 ELISA) of splenocytes stimulated in vitro. The settings on record: spleen cells of Diluent treated mice; label = in vitro stimulation. In kind it is cell-based, Balb/c mice. As for the experimental part:
Splenocytes (1×10^6 cells/ml) were either nonstimulated or cultured in the presence of various concentrations of either empty INEX324 vesicles, or INEX324-LacZ formulation at different times after culture initiation (24 h and 48 h). The levels of cytokine in the cell culture supernatant (Interleukin-2 and Interleukin-4) were determined by an ELISA assasy (below).
Cytokine-specific ELISA assays were performed using the protocol and specific anti-interleukin antibodies provided by reagent mini-kit (Endogen, Woburn MA). Briefly, Immuno-module (F8-maxisorb) 96-well plates were coated overnight with anti-IL-2, or anti-IL-4 antibody. Plates were washed with PBS-Tween 20 (0.05%) and blocked with PBS-Tween 20-BSA (2%) for 1 hour at room temperature. Supernatant samples and standards (diluted in blocking buffer) were added and allowed to incubate overnight. Plates were washed and biotinylated anti-IL-2 or anti-IL-4 antibody was added. After 2 hours incubation, plates were washed and HRP-Extravidin, followed by TMB, was added to each well. Plates were read on a plate reader at OD450nm. The amount of released cytokine was determined by comparing the O.D. of test supernatants to a standard curve of serially diluted cytokine standards.

Lipopolysaccharide [LPS]: the 3H-incorporation in assay [1] was determined as 35676 DPMs.

As to Concanavalin A [ConA], the 3H-incorporation in assay [1] is listed as 215542 DPMs. For the same substance, in assay [2], the “Cytokine release IL-2” value was 0.615 OD450 and the “Cytokine release IL-4” value came to 0.138 OD450.

For “r-β-gal: transgene product (r-β-galactosidase)”, the 3H-incorporation in assay [1] was found to be 18336 DPMs. Also, in assay [2], the “Cytokine release IL-2” value came out at 0.059 OD450 and the “Cytokine release IL-4” value was found to be 0.103 OD450.
